Measurements as given in patent US20090318366A1, “CHOLESTEROL LOWERING PROTEIN HYDROLYSATES” (DSM IP ASSETS B.V., priority 2006, published 2009).
Marks after values point to notes of the source that are not given here.

How the values were obtained:
Fisher F344 rats [1] = assay: Hypocholesterolemic effects of five small peptides in Fisher F344 rats, hypercholesterolemic rat model (Example 9); assay type: in vivo; details: 100 mg/kg BW oral, 7 days, mean ± SD, n = 9-10; for HDL cholesterol (plasma): control 0.14 ± 0.08; for Total cholesterol (plasma): control 10.1 ± 2.2; for non HDL cholesterol (plasma): total minus HDL cholesterol, control 10.0 ± 2.2
Description: In short eighty male Fisher rats (F344) from Charles River (Sulzfeld, Germany), weighing 65-96 g were housed individually with free access to water and feed, with an alternating 12-hour light-dark cycle. The animals were fed a rodent atherogenic diet high in cholesterol and fat for the 2 weeks preceding the treatment. The macro-nutrient composition of the diet was as follows (g/100 g anhydrous mix): protein 20.8; fiber 4.2; fat 15; carbohydrate 48. The diet also contained 1.25 wt % cholesterol, 0.5 wt % sodium cholate and a standard vitamin and mineral mix, prepared according to rat nutritional requirements. The main fats consisted of cacoa butter (7.5 wt %) and soja oil (4.35 wt %). After 2 weeks of adaptation to the diet the rats were randomized according to body weight into […] of 10 animals. The […] were treated orally every morning for 7 days with either water (control group) or one of the following peptides: RPRPS, RGRPS, HPHPH, RPRP, KPKPS, at a dose of 100 mg/kg body weight (BW) while continuing the aetherogenic diet. There was no difference in feed consumption over the whole experiment. The day before the last administration, all animals were dosed orally in the evening and deprived of food overnight (14 hours) but allowed free access to water. At day 7 the fasted rats were treated again orally in the morning and after two hours the animals were sacrificed by withdrawing blood from the vena Cava under Isoflurane anesthesia. Blood was collected into tubes containing EDTA as an anticoagulant. Plasma was prepared from the blood by immediate centrifugation at 1600 g for 10 minutes at 4° C. Assays of plasma cholesterol and HDL-cholesterol (precipitation method) were determined enzymatically on a Hitachi 912 automatic analyzer (Roche Diagnostica, Switzerland). Non-HDL cholesterol was calculated by difference between total cholesterol and HDL cholesterol. One animal in the control group was excluded from the analysis due to hemolytic plasma which interfered with the measurements. All data are expressed as means±standard deviation (SD) for animals in each diet group, with n being the number of rats. Statistical significance of the mean differences between dietary groups was tested by one-way analysis of variance (ANOVA). If significant differences were found, the Dunnett's test for multiple comparison was used to compare each group to the control group. P values less than 0.05 were considered significant (Table 3).

[2] = Solubility of cholesterol in mixed micelles (intramicellar cholesterol after 24 h at 37° C., centrifugation and filtration); details: 10 mg/ml test substance, 0.5 mM cholesterol, 6.6 mM taurocholate, 2.4 mM lecithin, pH 7.4, control 0.494
Description: The mixed micelles were prepared according to the method described by Nagaoka et al. (Biochemical and Biophysical Research Communications 281: 11-17 (2001)) by sonication of a 15 mM phosphate buffer saline (PBS) solution containing 6.6 mM taurocholate, 2.4 mM lecithin, 0.5 mM cholesterol and either 10 mg/ml of octapeptide (RPRPRPSF, MW1012) or 10 mg/ml soy protein (SUPRO 760, Solea Belgium) at pH 7.4. The lipids, phospholipids and cholesterol were dissolved in methanol and dried before adding the PBS buffer and the peptides or the soy protein at a final concentration of 10 mg/ml. The resulting micellar solution was kept at 37° C. for 24 hours and centrifuged at 1000×g for 10 min. In order to separate any precipitated cholesterol from the intramicellar cholesterol the solution was then filtered through a 0.22 μm MILLEX-GP filter (Millipore, Bedford, Mass., USA). The intramicellar concentration of cholesterol was then determined enzymatically using a cholesterol kit and a Hitachi 912 automatic analyzer from Roche Diagnostica, Switzerland.

Fisher F344 rats [3] = assay: Hypocholesterolemic effects of peptides in Fisher F344 rats on atherogenic diet (Example 8); assay type: in vivo, rat; details: 7 days; for HDL cholesterol (plasma) / Total cholesterol (plasma) / non HDL cholesterol (plasma): mean ± SD, n = 10; for HDL cholesterol (plasma): control 0.22 ± 0.12; for Total cholesterol (plasma): control 12.8 ± 3.1; for non HDL cholesterol (plasma): total minus HDL cholesterol, control 12.5 ± 3.1
Description: Forty male Fisher rats (F344) from Charles River (Sulzfeld, Germany), weighing 70-85 g were housed individually with free access to water and feed, with an alternating 12-hour light-dark cycle. The animals were fed a rodent atherogenic diet high in cholesterol and fat for the 2 weeks preceding the treatment. The macro-nutrient composition of the diet was as follows (g/100 g anhydrous mix): protein 20.8; fiber 4.2; fat 15; carbohydrate 48. The diet also contained 1.25 wt % cholesterol, 0.5 wt % sodium cholate and a standard vitamin and mineral mix, prepared according to rat nutritional requirements. The main fats consisted of cacoa butter (7.5 wt %) and soja oil (4.35 wt %). After 2 weeks of adaptation to the diet the rats were randomized according to body weight into four experimental groups of 10 animals. The four groups were treated orally every morning for 7 days with either water (control group) or octapeptide (RPRPRPSF) at two doses of 200 and 800 mg/kg body weight (BW) respectively or soy protein (SUPRO 760) at 800 mg/kg BW while continuing the aetherogenic diet. There was no difference in feed consumption over the whole experiment. The day before the last administration, all animals were dosed orally in the evening and deprived of food overnight (14 hours) but allowed free access to water. At day 7 the fasted rats were treated again orally in the morning and after two hours the animals were sacrificed by withdrawing blood from the vena Cava under Isoflurane anesthesia. Blood was collected into tubes containing EDTA as an anticoagulant. Plasma was prepared from the blood by immediate centrifugation at 1600 g for 10 minutes at 4° C. Assays of plasma cholesterol and HDL-cholesterol (precipitation method) were determined enzymatically on a Hitachi 912 automatic analyzer (Roche Diagnostica, Switzerland). Non-HDL cholesterol was calculated by difference between total cholesterol and HDL cholesterol. All data are expressed as means±standard deviation (SD) for animals in each diet group, with n being the number of rats. Statistical significance of the mean differences between dietary groups was tested by one-way analysis of variance (ANOVA). If significant differences were found, the Dunnett's test for multiple comparison was used to compare each group to the control group. P values less than 0.05 were considered significant (Table 2).

[4] = In vivo efficacy of peptide RPRPRPSF with and without beta-sitosterol (protocol of Nagaoka et al.); details: in combination with beta-sitosterol
Description: Peptide RPRPRPSF is chemically synthesized and beta-sitosterol is obtained from Sigma. Both compounds, apart and in combination, are subjected to a testing protocol which is essentially similar to the in vivo testing protocol described by Nagaoka et al., BBRC 281 (2001) 11-17.

[5] = 200 and 800 mg/Kg BW oral, p < 0.05

Row | Substance | HDL cholesterol (plasma) (Fisher F344 rats [1]) | Total cholesterol (plasma) (Fisher F344 rats [1]) | non HDL cholesterol (plasma) (Fisher F344 rats [1]) | also measured
1 | HPHPH | 0.29 ± 0.13^b mmol/L | 3.4 ± 1.2^b mmol/L | 3.1 ± 1.3^b mmol/L | –
2 | RGRPS | 0.37 ± 0.14^b mmol/L | 3.2 ± 0.4^b mmol/L | 2.9 ± 0.4^b mmol/L | –
3 | RPRPRPSF [synthetic octapeptide R-P-R-P-R-P-S-F, MW1012] | – | – | – | Cholesterol content of the micellar solution ([2]; listed as Octapeptide): 0.153 mmol/L; Cholesterol content of the micellar solution ([2]; listed as octapeptide (RPRPRPSF)): drastically decreased; HDL cholesterol (plasma) (Fisher F344 rats [3]; 200 mg/Kg BW oral): 0.54 ± 0.20^b mmol/L; Total cholesterol (plasma) (Fisher F344 rats [3]; 200 mg/Kg BW oral): 4.1 ± 1.2^b mmol/L; non HDL cholesterol (plasma) (Fisher F344 rats [3]; 200 mg/Kg BW oral): 3.6 ± 1.2^b mmol/L; HDL cholesterol (plasma) (Fisher F344 rats [3]; 800 mg/Kg BW oral): 0.51 ± 0.17^b mmol/L; Total cholesterol (plasma) (Fisher F344 rats [3]; 800 mg/Kg BW oral): 3.4 ± 0.7^b mmol/L; non HDL cholesterol (plasma) (Fisher F344 rats [3]; 800 mg/Kg BW oral): 2.9 ± 0.7^b mmol/L; Non-HDL cholesterol (VLDL-cholesterol+LDL-cholesterol) levels as compared to the control group (Fisher F344 rats [3]; [5]): significantly lowered; Plasma total cholesterol levels as compared to the control group (Fisher F344 rats [3]; [5]): significantly lowered; Ratio of non-HDL cholesterol to HDL-cholesterol (Fisher F344 rats [3]; oral): positively affected; Plasma HDL-cholesterol compared to the control group (Fisher F344 rats [3]; oral, p < 0.05): significantly increased; Effect on cholesterol in vivo [4]: further enhanced
4 | KPKPS | 0.29 ± 0.11^b mmol/L | 3.0 ± 1.0^b mmol/L | 2.7 ± 1.0^b mmol/L | –
5 | RPRP | 0.33 ± 0.11^b mmol/L | 2.9 ± 0.4^b mmol/L | 2.6 ± 0.4^b mmol/L | –
6 | RPRPS | 0.29 ± 0.06^b mmol/L | 3.6 ± 1.1^b mmol/L | 3.3 ± 1.2^b mmol/L | –
